Assay results reported in patent publication US20260070899A1, “N-(2-(4-CYANOTHIAZOLIDIN-3-YL)-2-OXOETHYL)-QUINOLINE-4-CARBOXAMIDES” (AstraZeneca AB, priority 2022, published 2026).

Columns and labels:
FAP Human Plasma = target: T1, FAP Human Plasma (Homo sapiens, UniProt Q12884); experiment: FAP plasma inhibition assay, human plasma; assay type: biochemical; details: human plasma dilution 1:40, Ala-Pro-AMC 75 μM; n = 1
T1 construct: Plasma (anticoagulant K2EDTA) was used as the enzyme source; tissue AZ Biobank; host or cells: pooled human plasma (K2EDTA)
T1 sequence (Q12884 24-760 limits assumed): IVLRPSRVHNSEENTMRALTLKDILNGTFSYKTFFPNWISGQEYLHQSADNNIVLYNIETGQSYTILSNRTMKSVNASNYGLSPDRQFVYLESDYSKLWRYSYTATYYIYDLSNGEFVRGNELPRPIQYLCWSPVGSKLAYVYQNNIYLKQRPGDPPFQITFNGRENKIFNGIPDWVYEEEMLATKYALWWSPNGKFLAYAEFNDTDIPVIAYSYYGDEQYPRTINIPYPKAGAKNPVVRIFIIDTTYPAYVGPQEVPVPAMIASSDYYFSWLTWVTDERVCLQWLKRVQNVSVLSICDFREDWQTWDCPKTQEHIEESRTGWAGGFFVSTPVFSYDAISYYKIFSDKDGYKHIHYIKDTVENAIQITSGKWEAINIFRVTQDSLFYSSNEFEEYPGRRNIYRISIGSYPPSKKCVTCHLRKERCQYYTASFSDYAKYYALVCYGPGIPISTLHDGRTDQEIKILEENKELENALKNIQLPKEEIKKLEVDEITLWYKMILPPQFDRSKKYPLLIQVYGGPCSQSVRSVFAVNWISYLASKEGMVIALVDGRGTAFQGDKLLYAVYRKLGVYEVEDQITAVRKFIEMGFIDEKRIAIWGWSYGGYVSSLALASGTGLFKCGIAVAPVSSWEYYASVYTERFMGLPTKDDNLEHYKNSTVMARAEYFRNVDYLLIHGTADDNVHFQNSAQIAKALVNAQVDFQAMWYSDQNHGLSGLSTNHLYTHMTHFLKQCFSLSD
Procedure: (§1) This assay was adapted from the method described in Example 89 for detection of FAP target engagement enzyme activity in plasma. Plasma (anticoagulant K2EDTA) was used as the enzyme source: Human plasma (Pooled from AZ Biobank) and Mouse plasma (AZ AST Biobank) and Cynomolgus plasma (BioIVT, #NHP00PLK2FNN, lot CYN222895). 384-Well black fluotrack PS plates (Greiner 781076) were used. 20 μL diluted plasma (Cynomolgus and Human plasma dilution 1:40, Mouse plasma dilution 1:67) in buffer (PBS, 0.1% BSA) was added to 0.6 μL compounds (in DMSO). Compounds were tested using 10 CR, 3 fold dilution series from 500 nM FAC. Two replicates for each assay point were run on the same plate. A fluorescence blank read was taken before substrate addition. Substrate, Ala-Pro-AMC (ARI-3144) stock solution (20 mM in DMSO) was diluted in buffer (PBS, 0.1% BSA) to 150 μM concentration and 20 μL added giving 75 μM FAC. Plates were incubated for 40 min at rt in the dark. The plates were read on a Beckman Paradigm® reader with excitation 360 nm and emission 465 nm. Data were analyzed in Excel (IDBS XLfit Add-In) using a one site dose response model (4-parameter logistic fit).

FAP Mouse Plasma = target: T2, FAP Mouse Plasma (Mus musculus, UniProt P97321); experiment: FAP plasma inhibition assay, mouse plasma; assay type: biochemical; details: mouse plasma dilution 1:67, Ala-Pro-AMC 75 μM; n = 1
T2 construct: Plasma (anticoagulant K2EDTA) was used as the enzyme source; tissue AZ AST Biobank; host or cells: mouse plasma (K2EDTA)
T2 sequence (P97321 24-761 limits assumed): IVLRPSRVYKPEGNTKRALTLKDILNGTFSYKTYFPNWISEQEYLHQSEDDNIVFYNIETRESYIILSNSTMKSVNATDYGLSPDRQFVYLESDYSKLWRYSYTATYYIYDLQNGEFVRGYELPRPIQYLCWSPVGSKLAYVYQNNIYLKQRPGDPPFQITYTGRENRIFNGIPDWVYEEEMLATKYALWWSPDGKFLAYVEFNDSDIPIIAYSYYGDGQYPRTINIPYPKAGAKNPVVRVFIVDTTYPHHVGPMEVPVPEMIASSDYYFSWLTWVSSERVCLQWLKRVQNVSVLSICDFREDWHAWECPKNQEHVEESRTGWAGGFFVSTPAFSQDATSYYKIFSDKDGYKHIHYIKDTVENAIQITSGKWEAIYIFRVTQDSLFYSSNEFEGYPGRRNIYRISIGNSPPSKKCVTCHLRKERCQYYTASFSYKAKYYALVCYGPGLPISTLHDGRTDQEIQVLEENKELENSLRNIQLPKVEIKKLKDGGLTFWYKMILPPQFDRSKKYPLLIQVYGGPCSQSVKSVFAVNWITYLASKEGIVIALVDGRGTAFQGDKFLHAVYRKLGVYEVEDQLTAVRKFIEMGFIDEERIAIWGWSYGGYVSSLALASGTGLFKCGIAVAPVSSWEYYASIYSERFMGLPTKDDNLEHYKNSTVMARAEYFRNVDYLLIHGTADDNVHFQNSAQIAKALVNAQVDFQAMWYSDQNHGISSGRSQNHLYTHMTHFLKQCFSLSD
Procedure: as §1

Row | SMILES | IC50 (FAP Human Plasma) | IC50 (FAP Mouse Plasma)
1 | COC(C)(C)c1ccc2nccc(C(=O)NCC(=O)N3CSC[C@H]3C#N)c2c1 [Example 18, (R)—N-(2-(4-Cyanothiazolidin-3-yl)-2-oxoethyl)-6-(2-methoxypropan-2-yl)quinoline-4-carboxamide] | 1.5 nM | 2.1 nM
2 | CC(C)(O)c1ccc2nccc(C(=O)NCC(=O)N3CSC[C@H]3C#N)c2c1 [Example 16, (R)—N-(2-(4-Cyanothiazolidin-3-yl)-2-oxoethyl)-6-(2-hydroxypropan-2-yl)quinoline-4-carboxamide] | 0.9 nM | 0.9 nM
3 | N#C[C@@H]1CSCN1C(=O)CNC(=O)c1ccnc2ccc(C3(C#N)CC3)cc12 [Example 70, (R)-6-(1-Cyanocyclopropyl)-N-(2-(4-cyanothiazolidin-3-yl)-2-oxoethyl)quinoline-4-carboxamide] | 0.7 nM | 0.7 nM
4 | CCOC1(c2ccc3nccc(C(=O)NCC(=O)N4CSC[C@H]4C#N)c3c2)CCOCC1 [Example 23, (R)—N-(2-(4-Cyanothiazolidin-3-yl)-2-oxoethyl)-6-(4-ethoxytetrahydro-2H-pyran-4-yl)quinoline-4-carboxamide] | 0.5 nM | 0.7 nM
5 | N#C[C@@H]1CSCN1C(=O)CNC(=O)c1ccnc2ccc(C3CCCCO3)cc12 (mixture of isomers) [Example 32, N-(2-((R)-4-Cyanothiazolidin-3-yl)-2-oxoethyl)-6-((RS)-tetrahydro-2H-pyran-2-yl)quinoline-4-carboxamide] | 0.5 nM | 1 nM
6 | N#C[C@@H]1CSCN1C(=O)CNC(=O)c1ccnc2ccc(C3CCOCC3)cc12 [Example 20, (R)—N-(2-(4-Cyanothiazolidin-3-yl)-2-oxoethyl)-6-(tetrahydro-2H-pyran-4-yl)quinoline-4-carboxamide] | 0.3 nM | 0.5 nM
7 | CC(C)(F)COc1ccc2nccc(C(=O)NCC(=O)N3CSC[C@H]3C#N)c2c1 [Example 3, (R)—N-(2-(4-Cyanothiazolidin-3-yl)-2-oxoethyl)-6-(2-fluoro-2-methylpropoxy)quinoline-4-carboxamide] | 0.3 nM | 0.5 nM
8 | N#C[C@@H]1CSCN1C(=O)CNC(=O)c1ccnc2ccc(C3(O)CCOCC3)cc12 [Example 15, (R)—N-(2-(4-Cyanothiazolidin-3-yl)-2-oxoethyl)-6-(4-hydroxy-tetrahydro-2H-pyran-4-yl)quinoline-4-carboxamide] | 0.3 nM | 0.5 nM
9 | CO[C@H]1CC[C@H](c2ccc3nccc(C(=O)NCC(=O)N4CSC[C@H]4C#N)c3c2)CC1 (single isomer, unassigned) [Example 78, N-(2-((R)-4-Cyanothiazolidin-3-yl)-2-oxoethyl)-6-((1r,4R*)-4-methoxycyclohexyl)quinoline-4-carboxamide] | 0.1 nM | 0.2 nM
